Test results taken from PMC8876231, “Analogues of Natural Chalcones as Efficient Inhibitors of AKR1C3” (Metabolites, 2022).
“And” between values parts separate entries of the source, which are not always exact repeats. Equal entries are not always repeated.

What was measured:
Type in all cases: biochemical
[1] = target: T1, AKR1C1 (Homo sapiens, UniProt Q04828); test: AKR1C1 inhibition assay (progesterone to 20α-hydroxyprogesterone); details: 10 µM compound; mean ± SD
T1 construct: Myc (N); expressed in transfected cells; host or cells: HEK293
T1 sequence (Q04828 1-323): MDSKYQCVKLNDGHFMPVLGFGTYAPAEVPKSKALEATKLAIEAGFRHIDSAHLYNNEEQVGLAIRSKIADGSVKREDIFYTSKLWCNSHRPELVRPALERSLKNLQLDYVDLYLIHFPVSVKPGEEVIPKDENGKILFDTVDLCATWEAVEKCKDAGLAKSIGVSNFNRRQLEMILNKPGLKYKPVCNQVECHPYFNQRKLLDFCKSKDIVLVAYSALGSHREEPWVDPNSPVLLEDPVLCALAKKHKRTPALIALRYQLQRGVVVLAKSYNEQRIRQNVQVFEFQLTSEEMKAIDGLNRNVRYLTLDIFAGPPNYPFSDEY
Description: (§1) For enzymatic assays and inhibitor testing, all enzymes were cloned into bacterial or mammalian expression vectors. AKR1C3 and the human hydroxysteroid dehydrogenases HSD17B1, HSD17B2, HSD17B4 (SDR domain), HSD17B7, and HSD17B10 were cloned into a pGEX vector as described in [71, 72]. The coding sequences for AKR1C1, AKR1C2, and AKR1C4 were cloned by Gateway technology into the pcDNA3-N-MycDest vector according to the manufacturer’s instructions (Life Technologies, Carlsbad, CA, USA). The p11 plasmid coding for HSD17B14 (S205 variant) was a gift from Udo Opperman SGC Oxford, UK. For assays with HSD17B3, HEK293 cells stably expressing HSD17B3 were used. Enzymes were expressed in E. coli BL21 DE3 or E. coli BL21 DE3 Codon Plus RP (Stratagene, San Diego, CA, USA) or in HEK293 cells as described in [71, 72, 73]. Bacterial and cell pellets were stored at −20 °C and −80 °C, respectively, until use.
(§2) Inhibition assays were carried out as described in [71, 74]. […] For a detailed assay setup, see Supplementary Table S6. The incubation at 37 °C was stopped with 0.21 M ascorbic acid in methanol:acetic acid 99:1 (v:v) after the time needed to convert approximately 30% of the substrate in a control assay with 1% DMSO, without inhibitor candidate. Substrates and products were extracted from the reaction mixture by solid-phase extraction using C18 cartridges (Phenomenex, Aschaffenburg, Germany) and separated by RP–HPLC in a Beckman–Coulter HPLC Gold system, using the Luna 5 µm C18(2), 125 × 4.0 mm column (Phenomenex). The mobile phases used were H2O:ACN (57:43 (v:v); for assays of estrone (E1) to oestradiol (E2), E2 to E1, and ∆4-androstene-3,17-dione to testosterone conversion), H2O:ACN (49:51 (v:v); for assays of progesterone to 20α-hydroxyprogesterone conversion), and H2O:MeOH (35:65 (v:v) for assays of dihydrotestosterone (DHT) to 3α-androstanediol conversion) at a flow rate of 1 mL/min. Radioactivity was detected by online scintillation counting by using a radioactivity monitor (LB506D, Berthold Technologies, Bad Wildbad, Germany). Conversion of substrates to products was determined by integration of the peak area of the substrate and product peaks in percent. For calculation of inhibition, the conversion of control assay (assay without inhibitor) was set to 0% inhibition. All assays were run in triplicates, and mean values ± SD are reported.
(§3) Table S6: Activity assay setup […]
(§4) E1: estrone; E2: 17β-estradiol, A: Δ4-androstene-3,17-dione; T: testosterone, P: progesterone, 20αOHP: 20α-hydroxyprogesterone, DHT: dihydrotestosterone, 3α-Adiol: 3α-androstanediol, NaPi: 100 mM Na-phosphate buffer; PI: C0mplete protease inhibitor (Roche);. E.coli - Expression in E.coli BL21 DE3 Codon Plus RP except E.coli BL21 DE3 […]
(§5) application to antiparasitic and natural product synthesis. Eur J Org Chem […]
(§6) Synthesis of Xanthohumol analogues and discovery of potent thioredoxin reductase inhibitor as potential anticancer agent. J Med Chem 2015, 58,

[2] = target: T2, HSD17B14 (Homo sapiens, UniProt Q9BPX1, T205S); test: HSD17B14 (S205 variant) inhibition assay (oestradiol to estrone); details: 10 µM compound; mean ± SD
T2 construct: His6 (own knowledge: the SGC p11 vector encodes an N-terminal His tag with TEV site); made in house; host or cells: E. coli BL21 DE3
T2 sequence (Q9BPX1 1-270 T205S): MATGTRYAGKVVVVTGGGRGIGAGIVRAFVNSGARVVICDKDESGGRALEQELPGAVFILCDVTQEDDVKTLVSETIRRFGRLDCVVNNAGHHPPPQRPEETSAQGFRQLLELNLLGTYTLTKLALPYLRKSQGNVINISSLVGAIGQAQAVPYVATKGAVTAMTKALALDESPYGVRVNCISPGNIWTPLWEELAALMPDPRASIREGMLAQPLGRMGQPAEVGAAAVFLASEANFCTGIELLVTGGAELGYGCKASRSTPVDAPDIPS
Description: as §1, §2, §3, §4, §5, §6

[3] = target: T3, AKR1C3 (Homo sapiens, UniProt P42330); test: AKR1C3 enzymatic inhibition assay (∆4-androstene-3,17-dione to testosterone); details: for IC50: one-site ligand binding fit
T3 construct: GST (own knowledge: pGEX vectors encode N-terminal GST); made in house; host or cells: E. coli BL21 DE3 Codon Plus RP, lysate
T3 sequence (P42330 1-323): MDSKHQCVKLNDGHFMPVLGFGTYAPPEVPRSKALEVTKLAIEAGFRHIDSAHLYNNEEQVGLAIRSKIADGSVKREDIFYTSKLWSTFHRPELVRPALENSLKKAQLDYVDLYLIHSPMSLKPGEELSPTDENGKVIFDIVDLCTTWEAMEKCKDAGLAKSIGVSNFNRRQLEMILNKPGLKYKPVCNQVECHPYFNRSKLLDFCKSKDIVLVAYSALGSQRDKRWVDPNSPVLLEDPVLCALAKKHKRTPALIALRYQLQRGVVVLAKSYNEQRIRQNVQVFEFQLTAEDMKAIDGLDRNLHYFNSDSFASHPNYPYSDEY
Description: as §1, §2
For the determination of IC50 values, percent inhibition values were fitted using the Enzyme Kinetics module of SigmaPlot 13.0 and the one-site ligand-binding model according to the formula f = Bmax * abs(x)/(Kd + abs(x)).
as §3, §4, §5, §6

[4] = 10 µM compound, ∆4-androstene-3,17-dione reduction, triplicates, mean ± SD, 10 µM
[5] = ∆4-androstene-3,17-dione reduction, mean ± SD
[6] = 10 µM compound, ∆4-androstene-3,17-dione reduction, triplicates, mean ± SD

SMILES | Inhibition of AKR1C1 at 10 µM in % [1] | Inhibition of HSD17B14 at 10 µM in % [2] [%] | AKR1C3 Inhibition at 10 µM [%] [3, 4] | IC50 [3, 5] [µM] | inhibition at 10 µM [1] [%] | inhibition at 10 µM [2] [%] | inhibition at 10 µM [3, 6] [%] | Fold more active than natural chalcone 18 (AKR1C3) ([3]; compared with chalcone 18) [fold] | AKR1C3 Inhibition at 10 µM [%] [3, 6] [%]
COc1ccc(/C=C/C(=O)c2c(O)cc(O)cc2OC)cc1 [Compound 18] | 96.5% | 24.9 ± 8.1 | 47.3 ± 6.4% | 11.9 ± 2.03 |  |  |  |  | 
COc1ccc(/C=C/C(=O)c2c(O)cc(O)cc2O)cc1 [Compound 19] | > 75% | 1.8 ± 7.7 | > 75% and 78.1 ± 2.7% | 2.36 ± 0.54 |  |  |  |  | 
Cc1cccc(/C=C/C(=O)c2c(O)cc(O)cc2O)c1 [Compound 20] | 86.9 ± 1.1% and > 75% | 18.5 ± 9.3 | > 75% and 89.2 ± 6.3% | 1.94 ± 0.32 |  |  |  |  | 
Cc1ccc(/C=C/C(=O)c2c(O)cc(O)cc2O)cc1 [Compound 21] | 90.2 ± 0.8% and > 75% | -8.0 ± 2.3 | > 75% and 87.9 ± 4.9% | 5.18 ± 1.64 |  |  |  |  | 
O=C(/C=C/c1ccc(Cl)cc1Cl)c1c(O)cc(O)cc1O [Compound 23, 2,4-dichloro-2′,4′,6′-trihydroxychalcone] |  |  |  | 1.08 ± 0.27 | 97 ± 0.5 | 13.9 ± 2.7 | 90.9 ± 4.6 | 10 | 
COc1cc(O)cc(O)c1C(=O)/C=C/c1ccc(Cl)cc1Cl [Compound 25] | 87.9% | -3.2 ± 6.3 |  |  |  |  |  |  | 33.3 ± 6.0
